In patent US7476383B2, “Antibody selective for DR4 and uses thereof” (The UAB Research Foundation, priority 2000, dated 2009):

Columns and labels:
[1] = tested on: Human prostate cancer cell line PC-3; assay: Combination study with Paclitaxel, XTT; format: cell-based; details: 24 h
Description: Human prostate cancer cell line PC-3 is obtained from American Tissue Culture Collection (ATCC) and maintained in F-12K Nutrient Mixture (21127-022, Gibco BRL) containing 10% fetal bovine serum (FBS, Hyclone), 1% L-Glutamine-200 mM (25030-149, Gibco BRL) and 0.5% Penicillin Streptomycin Solution (P-7539, Sigma). RPMI1640 medium (MED-008, IWAKI) supplemented with 10% FBS and 0.5% Penicillin Streptomycin Solution is used in the following experiment. Exponentially growing PC-3 cells are collected by trypsinization and washed twice with fresh medium. The cells are then counted, resuspended in fresh medium at a density of 5×10^4 cells/ml and distributed in triplicate into flat-bottomed 96 well plates (3598, Coming-Coster) in a total volume of 100 μl/well one day before the start of the experiment. A representative anti-cancer drug, Paclitaxel (169-18611, Wako) dissolved in dimethylsulfoxide (10 mg/ml) is diluted in fresh medium and then added to the 96-well plates containing the cells at 50 μl/well. The final concentrations of dimethylsulfoxide are less than 0.1%. […] After incubation for a further 24 hr, 50 μl of Minimum Essential Medium (11095-098, Gibco BRL) containing 1 mg/ml of XTT and […] of PMS is added to the wells and the plates are incubated for 6 hr. OD450 is then measured by SPECTRA MAX 250 (Molecular Devices) and the cell viability is calculated as follows.

[2] = tested on: 2LMP human breast cancer xenografts; assay: 2LMP breast cancer xenografts in athymic nude mice; format: in vivo
Description: Nude mice were inoculated s.c. with the human breast cancer cell line, 2LMP. Treatment with i.p. doses of 200 μg of 2E12 occurred on days 7, 10, 14, 17, 21, and 24 after tumor cell injection. Animals received i.v. adriamycin (doxorubicin) (6 mg/kg) on days 8, 12, and 16.
Athymic nude mice were injected s.c. with 3×10^7 2LMP cells. […] The growth of tumors was monitored over time. […] Tumor size and regression rates were determined.
Data from 6 independent experiments were analyzed by individual experiment. Treatment combinations were compared with respect to in vivo anti-tumor efficacy, i.e., inhibition of tumor growth, which was measured as three endpoints; extension of tumor doubling times, percentage of tumor regressions, and growth rates over time. The actual number of days at which the tumor doubled in surface area (product of two diameters) relative to baseline on day 7 after tumor cell injection was used in the doubling time analysis. The nonparametric Kruskal-Wallis test was used for median tumor doubling time comparisons between treatments. Fisher's exact test was used to compare the proportions of tumor regressions and relapse-free regressions across treatment groups. To determine if any combination therapy produced significant synergistic inhibition of tumor growth, i.e., more than additive, the growth curves from the serial area measurements were compared using a linear mixed model approach over the first 3 weeks after start of therapy (Lindsey, J. K. Models for Repeated Measurements, pp. 100-142, Oxford, 1993). To test for synergistic effects of the combination therapies, an interaction term was included in the model. If the interaction term was significant and the effect was inhibition of growth at a rate greater than additive then the interaction was considered synergistic.
A total of 166 animals, 10 treatment groups, and 6 independent experiments were included in the aggregate analysis. Treatment combinations were compared with respect to in vivo anti-tumor efficacy. The median tumor doubling times were analyzed using the Kruskal-Wallis test and Fisher's exact test was used to compare the proportions of tumor regressions and relapse-free regressions across treatment groups.

2LMP xenografts = assay: TUNEL analysis of apoptosis in xenografts; format: in vivo, athymic nude mice; details: day 14; untreated 1%
Description: One group of mice was untreated. The xeno grafts were dissected for the study of apoptosis on day 14 after tumor cell injection. The reason for the substantial reduction in treatment intensity compared to our standard treatment protocol was to allow adequate tumor tissue for analysis on day 14. Tunel assay for apoptosis in tumor xenografts was performed as follows. Five-micron paraffin sections of tissue were mounted on Superfrost/Plus slides and heated at 58° C. for 1 h. Tissue sections were deparaffinized in three changes of xylene and rehydrated with one change of absolute ethanol, 95% ethanol, and 70% ethanol, each in 5-min increments. Then, the sections were placed in Tris-buffered saline (0.5M Tris base, 0.15 M NaCl, 0.0002% Triton X-100, pH 7.6). Apoptotic nuclei were detected using an Apop Tag Peroxidase kit (Intergen, Purchase, N.Y.). Proteinase K (20 μg/ml in distilled deionized H2O) was added to the tissue specimens and incubated at room temperature for 15 min. Endogenous peroxidases were quenched with an aqueous solution of 3% hydrogen peroxide for 5 min. […] Approximately 10 random fields were evaluated for percentage of Tunel stained and percentage of intensely stained apoptotic bodies throughout the tissue.

Jurkat cells = assay: Apoptosis-inducing activity of humanized antibody, XTT; format: cell-based, human; details: 12 hours
Description: Jurkat cells cultured in RPM11640 medium with 10% FCS (Gibco BRL) at 37° C. for 3 days in the presence of 5% CO2 are dispensed into each well of a 96-well microplate (Sumitomo Bakelite) at 50 μl per well. […] Each of the solutions of the expression products thus adjusted to 100 ng/ml is used to produce serial dilutions by repeating serial 2-fold dilution with RPM1640 containing 10% FCS. […] After reacting at 37° C. for 12 hours, 50 μl of 25 μM PMS (phenazine methosulfate; Sigma Chemical Co.) containing 1 mg/ml XTT (2,3-bis[2-methoxy-4-nitro-5-sulfophenyl]-2H-tetrazolium-5-carboxyaniride inner salt; Sigma Chemical Co.) is added (final concentrations of 250 μg/ml for XTT and 5 μM for PMS). After incubating for 3 hours, the absorbance at 450 nm of each well is measured to calculate the cell viability by using the reduction ability of mitochondria as the index.
The viability of the cells in each well is calculated according to the following formula: Viability (%)=100×(a−b)/(c−b) wherein “a” is the measurement of a test well, “b” is the measurement of a well with no cells, and “c” is the measurement of a well with no antibody added.
Jurkat cells cultured in RPMI1640 medium with 10% FCS (Gibco BRL) at 37° C. for 3 days in the presence of 5% CO2 are dispensed into each well of a 96-well microplate (Sumitomo Bakelite) at 50 μl per well. […]

[3] = aggregate, number of animals (%)

Molecule	viability at 0.0001 µg/mL [1] [%]	Complete Regressions No relapse (%) [2, 3]	Complete Regressions Total (%) [2, 3]	complete regressions of tumor ([2]; individual experiments (FIG. 25-27), animals)	intense TUNEL stained cells (2LMP xenografts) [%]	apoptosis-inducing activity (Jurkat cells)
CC(=O)O[C@H]1C(=O)[C@@]2(C)[C@H]([C@H](OC(=O)c3ccccc3)[C@]3(O)C[C@H](OC(=O)[C@H](O)[C@@H](NC(=O)c4ccccc4)c4ccccc4)C(C)=C1C3(C)C)[C@]1(OC(C)=O)CO[C@@H]1C[C@@H]2O [Paclitaxel]	> 40	0	0	none	2	–
humanized TRA-8: humanized TRA-8, cotransfection of pHB14-1 and pSR/M2-1 (H2 type heavy chain, LM2 light chain) (antibody) VH: EVMLVESGGGLVQPGGSLRLSCAASGFTFSSYVMSWVRQAPGKGLEWVATISSGGSYTYYPDSVKGRFTISRDNAKNTLYLQMNSLRAEDTAVYYCARRGDSMITTDYWGQGTLVTVSS light: DIVMTQSPSSLSASVGDRVTITCKASQDVGTAVAWYQQKPGKAPKLLIYWASTRHTGVPSRFSGSGSGTDFTLTISSLQPEDFATYYCQQYSSYRTFGQGTKVEIKRTVAAPSVFIFPPSDEQLKSGTASVVCLLNNFYPREAKVQWKVDNALQSGNSQESVTEQDSKDSTYSLSSTLTLSKADYEKHKVYACEVTHQGLSSPVTKSFNRGEC	–	–	–	–	–	induce apoptosis
